The values that follow come from ChEMBL document CHEMBL1255530, “3D-QSAR CoMFA study of benzoxazepine derivatives as mGluR5 positive allosteric modulators” (Bioorg Med Chem Lett, 2010).

The target of this test is Metabotropic glutamate receptor 5 (Rattus norvegicus, UniProt P31424). Nature of the test: Positive allosteric modulation of rat mGluR5 expressed in HEK293 cells.
Metabotropic glutamate receptor 5, sequence (P31424 whole entry): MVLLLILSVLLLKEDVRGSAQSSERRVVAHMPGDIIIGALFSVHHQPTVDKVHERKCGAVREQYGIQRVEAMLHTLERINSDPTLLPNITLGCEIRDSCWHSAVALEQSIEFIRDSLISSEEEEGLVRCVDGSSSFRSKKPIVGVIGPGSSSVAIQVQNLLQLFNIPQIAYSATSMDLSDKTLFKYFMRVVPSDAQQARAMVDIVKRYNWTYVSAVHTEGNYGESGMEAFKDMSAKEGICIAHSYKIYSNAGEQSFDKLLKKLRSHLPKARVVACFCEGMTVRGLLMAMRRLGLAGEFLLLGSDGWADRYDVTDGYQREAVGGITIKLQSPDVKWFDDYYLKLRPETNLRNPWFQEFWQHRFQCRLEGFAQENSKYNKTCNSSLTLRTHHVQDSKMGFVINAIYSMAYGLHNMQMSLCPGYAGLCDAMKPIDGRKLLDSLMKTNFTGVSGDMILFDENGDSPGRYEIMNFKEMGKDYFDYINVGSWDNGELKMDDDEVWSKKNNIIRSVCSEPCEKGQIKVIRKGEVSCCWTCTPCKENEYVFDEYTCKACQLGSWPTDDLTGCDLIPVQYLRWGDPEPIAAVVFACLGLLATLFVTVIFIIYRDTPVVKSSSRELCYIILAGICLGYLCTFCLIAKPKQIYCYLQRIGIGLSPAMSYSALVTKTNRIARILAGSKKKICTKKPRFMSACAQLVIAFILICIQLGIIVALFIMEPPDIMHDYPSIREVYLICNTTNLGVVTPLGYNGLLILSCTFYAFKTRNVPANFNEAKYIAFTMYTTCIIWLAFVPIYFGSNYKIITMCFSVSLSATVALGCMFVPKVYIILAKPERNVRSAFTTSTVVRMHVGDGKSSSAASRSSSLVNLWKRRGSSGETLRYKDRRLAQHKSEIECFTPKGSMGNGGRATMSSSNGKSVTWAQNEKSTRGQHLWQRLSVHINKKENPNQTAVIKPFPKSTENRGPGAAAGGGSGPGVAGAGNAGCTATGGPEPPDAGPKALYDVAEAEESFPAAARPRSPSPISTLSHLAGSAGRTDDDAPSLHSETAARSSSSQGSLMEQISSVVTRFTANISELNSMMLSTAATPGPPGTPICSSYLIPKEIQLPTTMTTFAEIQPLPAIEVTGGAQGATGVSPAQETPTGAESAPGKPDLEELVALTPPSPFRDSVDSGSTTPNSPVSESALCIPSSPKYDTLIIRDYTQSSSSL
`CSc1nnc2c(n1)O[C@@H](c1ccccc1F)N(C(C)=O)c1ccccc1-2` showed an EC50 of 3.47 µM. This counts as single-digit micromolar.
The compound `CCCSc1nnc2c(n1)O[C@H](c1ccccc1OC(C)=O)N(C(C)=O)c1ccccc1-2` showed a concentration for a half-maximal effect (EC50) of 1.32 µM. This EC50 is about 2.6-fold lower than that of the compound before.
In the case of `CCSc1nnc2c(n1)O[C@@H](c1ccco1)N(C(C)=O)c1ccccc1-2` it was 0.871 µM; in that of `CCC(=O)N1c2ccccc2-c2nnc(SC)nc2O[C@H]1c1ccccc1Br`, 1.35 µM.
`CSc1nnc2c(n1)O[C@@H](c1cccc(C)n1)N(C(C)=O)c1ccccc1-2` had an EC50 of 7.59 µM.
The compound `CCCSc1nnc2c(n1)O[C@@H](c1ccccc1F)N(C(=O)CC)c1ccccc1-2` showed an EC50 of 0.646 µM.
In the case of `CCSc1nnc2c(n1)O[C@@H](c1ccccn1)N(C(=O)CC)c1ccccc1-2` it was 4.37 µM.
Compound `CCCSc1nnc2c(n1)O[C@@H](c1cccn1C)N(C(C)=O)c1ccccc1-2` showed an EC50 of 0.347 µM.
In turn, `CCCSc1nnc2c(n1)O[C@@H](c1cc(OC)c(OC)cc1Cl)N(C(C)=O)c1ccccc1-2` gave an EC50 of 1.2 µM.
In turn, `CCCC(=O)N1c2ccccc2-c2nnc(SC)nc2O[C@H]1c1ccc(OC)cc1OC` showed an EC50 of 2.09 µM. This EC50 lies about 1.7-fold higher than the previous one.
With `CCSc1nnc2c(n1)O[C@@H](C)N(C(C)=O)c1ccccc1-2`, the EC50 is 13.8 µM.
For the compound `CSc1nnc2c(n1)O[C@@H](c1ccccn1)N(C(C)=O)c1ccccc1-2`, the EC50 is 5.25 µM.
`CCSc1nnc2c(n1)O[C@@H](c1cccn1C)N(C(=O)CC)c1ccccc1-2` had an EC50 of 1.26 µM. Compared with the last compound, the EC50 is about 4.2-fold lower.
As for `C=CCSc1nnc2c(n1)O[C@@H](c1cccs1)N(C(=O)CC)c1ccccc1-2`, the figure is 0.0575 µM; as for `CSc1nnc2c(n1)O[C@@H](c1ccccc1C)N(C(C)=O)c1ccccc1-2`, 3.02 µM.
For `CSc1nnc2c(n1)O[C@@H](c1cccc(F)c1)N(C(C)=O)c1ccccc1-2`, the EC50 was 1.26 µM.
In the case of `CCC(=O)N1c2ccccc2-c2nnc(SC)nc2O[C@H]1c1cc(OC)c(OC)c(OC)c1` it was 0.832 µM; in that of `C=CCSc1nnc2c(n1)O[C@@H](c1ccc(N(C)C)cc1)N(C(C)=O)c1ccccc1-2`, 3.16 µM; in that of `CCC(=O)Oc1ccc(Cl)cc1[C@@H]1Oc2nc(SC)nnc2-c2ccccc2N1C(=O)CC`, 3.24 µM.
As for `C=CCSc1nnc2c(n1)O[C@@H](c1ccccn1)N(C(C)=O)c1ccccc1-2`, the figure is 0.562 µM; as for `C=CCSc1nnc2c(n1)O[C@@H](/C=C/c1cccs1)N(C(C)=O)c1ccccc1-2`, 0.229 µM.
As for `CSc1nnc2c(n1)O[C@@H](c1cccc(OCc3ccccc3)c1)N(C(C)=O)c1ccccc1-2`, the figure is 3.31 µM.
Compound `COc1ccc(OC)c([C@@H]2Oc3nc(SC)nnc3-c3ccccc3N2C(C)=O)c1` gave an EC50 of 0.891 µM.
In the case of `CCC(=O)N1c2ccccc2-c2nnc(SC)nc2O[C@H]1c1cc(OC)ccc1OC` it was 0.191 µM.
As for `C=CCSc1nnc2c(n1)O[C@@H](c1cccs1)N(C(C)=O)c1ccccc1-2`, the figure is 0.316 µM.
`CCSc1nnc2c(n1)O[C@@H](c1ccc(N(C)C)cc1)N(C(C)=O)c1ccccc1-2` showed an EC50 of 4.27 µM.
Take `CCSc1nnc2c(n1)O[C@@H](c1cc(Br)ccc1OC)N(C(=O)CC)c1ccccc1-2`: the EC50 is 0.813 µM.
As for `CCC(=O)N1c2ccccc2-c2nnc(SC)nc2O[C@H]1c1ccccc1F`, the figure is 1.78 µM; as for `CCCCSc1nnc2c(n1)O[C@@H](c1cccc(C)n1)N(C(C)=O)c1ccccc1-2`, 0.617 µM.
In the case of `CCSc1nnc2c(n1)O[C@@H](c1cc(Br)ccc1OC)N(C(C)=O)c1ccccc1-2` it was 0.12 µM; in that of `CCCSc1nnc2c(n1)O[C@@H](c1ccccc1OC)N(C(C)=O)c1ccccc1-2`, 0.158 µM; in that of `CSc1nnc2c(n1)O[C@@H](c1c(C)[nH]c3ccccc13)N(C(C)=O)c1ccccc1-2`, 4.07 µM.
In the case of `C=CCSc1nnc2c(n1)O[C@@H](c1ccccc1)N(C(C)=O)c1ccccc1-2` it was 0.0955 µM; in that of `CCOc1cc([C@@H]2Oc3nc(SC)nnc3-c3ccccc3N2C(=O)CC)ccc1OC(=O)CC`, 2.82 µM.
On to `CCOc1cc([C@@H]2Oc3nc(SCC)nnc3-c3ccccc3N2C(C)=O)ccc1OC(C)=O`, for which the EC50 was 1.95 µM.
As for `CCSc1nnc2c(n1)O[C@@H](c1cc(Cl)ccc1OC(C)=O)N(C(C)=O)c1ccccc1-2`, the figure is 1.58 µM; as for `CCCCSc1nnc2c(n1)O[C@@H](c1cccn1C)N(C(C)=O)c1ccccc1-2`, 0.692 µM; as for `CCCCSc1nnc2c(n1)O[C@@H](c1ccsc1)N(C(C)=O)c1ccccc1-2`, 0.479 µM.
`CCSc1nnc2c(n1)O[C@H](c1ccccc1C)N(C(C)=O)c1ccccc1-2` showed an EC50 of 2.04 µM.
With `CCOC(=O)COc1ccccc1[C@@H]1Oc2nc(SC)nnc2-c2ccccc2N1C(=O)CC`, the midpoint of the response, the EC50, lay at 2.19 µM.
In the case of `CCC(=O)N1c2ccccc2-c2nnc(SC)nc2O[C@H]1c1cccc(C)n1` it was 2.34 µM; in that of `CCSc1nnc2c(n1)O[C@@H](c1cccc(OC)c1)N(C(=O)CC)c1ccccc1-2`, 0.107 µM.
As for `CCOc1ccc(Br)cc1[C@@H]1Oc2nc(SC)nnc2-c2ccccc2N1C(=O)CC`, the figure is 0.398 µM.
In the case of `CCC(=O)N1c2ccccc2-c2nnc(SC)nc2O[C@H]1c1cc(Cl)c(OC)c(OC)c1` it was 1.2 µM.
`CCC(=O)N1c2ccccc2-c2nnc(SC)nc2O[C@H]1c1cc2c(cc1Cl)OCO2` gave an EC50 of 5.25 µM. Compared with the last compound, the EC50 is about 4.4-fold higher.
As for `CCSc1nnc2c(n1)O[C@@H](c1ccc(OC)cc1OC)N(C(C)=O)c1ccccc1-2`, the figure is 0.49 µM.
In turn, `CSc1nnc2c(n1)O[C@@H](c1cccn1C)N(C(C)=O)c1ccccc1-2` gave an EC50 of 9.55 µM.
As for `CCC(=O)N1c2ccccc2-c2nnc(SC)nc2O[C@H]1c1ccc(I)o1`, the figure is 1.41 µM; as for `CCCC(=O)N1c2ccccc2-c2nnc(SCC)nc2O[C@H]1c1cccs1`, 0.263 µM; as for `CCSc1nnc2c(n1)O[C@@H](c1cccs1)N(C(=O)CC)c1ccccc1-2`, 0.309 µM.
In turn, `CCCSc1nnc2c(n1)O[C@@H](c1ccncc1)N(C(C)=O)c1ccccc1-2` had an EC50 of 0.49 µM.
`CCC(=O)N1c2ccccc2-c2nnc(SC)nc2O[C@H]1c1cc(Cl)ccc1OC`: a half-maximal response (EC50) required 0.759 µM. Compared with the last compound, the EC50 is about 1.5-fold higher.
In the case of `CSc1nnc2c(n1)O[C@@H](c1cccc(Oc3ccccc3)c1)N(C(C)=O)c1ccccc1-2`, the EC50 was 2.95 µM.
In the case of `CCC(=O)N1c2ccccc2-c2nnc(SC)nc2O[C@H]1c1ccc(OC)c(C)c1` it was 3.63 µM.
In the case of `CCSc1nnc2c(n1)O[C@@H](c1ccc(OC)c(Br)c1)N(C(C)=O)c1ccccc1-2` it was 0.955 µM; in that of `CCC(=O)N1c2ccccc2-c2nnc(SC)nc2O[C@H]1c1cc(Br)c(OC)c(OC)c1`, 1.23 µM.
`CCSc1nnc2c(n1)O[C@@H](c1cccc(C)c1OC(C)=O)N(C(C)=O)c1ccccc1-2` showed a half-maximal effective concentration (EC50) of 2.82 µM.
As for `CCCC(=O)N1c2ccccc2-c2nnc(SC)nc2O[C@H]1c1ccc(C)o1`, the figure is 2.24 µM; as for `CCSc1nnc2c(n1)O[C@@H](c1ccc(OC(C)=O)cc1)N(C(C)=O)c1ccccc1-2`, 0.813 µM; as for `C=CCSc1nnc2c(n1)O[C@@H](/C=C/c1ccccc1)N(C(C)=O)c1ccccc1-2`, 1.7 µM.
As for `CCSc1nnc2c(n1)O[C@@H](c1ccco1)N(C(=O)CC)c1ccccc1-2`, the figure is 0.813 µM; as for `CCCCSc1nnc2c(n1)O[C@@H](CC)N(C(C)=O)c1ccccc1-2`, 3.98 µM; as for `CCSc1nnc2c(n1)O[C@H](c1cccnc1)N(C(C)=O)c1ccccc1-2`, 1.82 µM.
As for `CCOc1ccccc1[C@@H]1Oc2nc(SC)nnc2-c2ccccc2N1C(C)=O`, the figure is 1.23 µM; as for `CCC(=O)N1c2ccccc2-c2nnc(SC)nc2O[C@H]1c1ccc(C)s1`, 1.95 µM; as for `C=CCSc1nnc2c(n1)O[C@@H](c1ccc(OC)c(OC)c1OC)N(C(C)=O)c1ccccc1-2`, 7.76 µM.
Turning to `C=CCSc1nnc2c(n1)O[C@@H](c1ccco1)N(C(C)=O)c1ccccc1-2`, the EC50 was 1.02 µM.
With `CSc1nnc2c(n1)O[C@@H](c1ccc(C)cc1)N(C(C)=O)c1ccccc1-2`, a half-maximal response (EC50) required 2.75 µM.
As for `CCSc1nnc2c(n1)O[C@@H](c1ccc(OCc3ccccc3)cc1)N(C(C)=O)c1ccccc1-2`, the response was half-maximal at 6.03 µM (EC50).
On to `CCOc1cc([C@@H]2Oc3nc(SC)nnc3-c3ccccc3N2C(=O)CC)cc(Br)c1OC`, for which a half-maximal effect (EC50) was put at 7.08 µM.
In the case of `CCC(=O)N1c2ccccc2-c2nnc(SC)nc2O[C@H]1c1ccccc1C` it was 2 µM; in that of `C=CCSc1nnc2c(n1)O[C@@H](c1cc(Br)c(OC(C)=O)c(OC)c1)N(C(C)=O)c1ccccc1-2`, 3.31 µM; in that of `CCC(=O)N1c2ccccc2-c2nnc(SC)nc2O[C@H]1c1ccccn1`, 7.41 µM.
As for `CSc1nnc2c(n1)O[C@@H](c1cn(C)c3ccccc13)N(C(C)=O)c1ccccc1-2`, the figure is 1.82 µM; as for `CCC(=O)N1c2ccccc2-c2nnc(SC)nc2O[C@H]1c1ccccc1OC`, 0.562 µM.
As for `C=CCSc1nnc2c(n1)O[C@@H](c1ccc(C)s1)N(C(C)=O)c1ccccc1-2`, the figure is 0.331 µM; as for `CCCC(=O)N1c2ccccc2-c2nnc(SC)nc2O[C@H]1c1cccnc1`, 3.89 µM.
As to `CCC(=O)N1c2ccccc2-c2nnc(SC)nc2O[C@H]1c1ccc(OC)cc1`, the midpoint of the response, the EC50, lay at 2.19 µM.
`C=CCSc1nnc2c(n1)O[C@@H](c1sccc1C)N(C(C)=O)c1ccccc1-2` gave an EC50 of 0.457 µM.
As for `C=CCOc1ccc([C@@H]2Oc3nc(SC)nnc3-c3ccccc3N2C(C)=O)cc1`, the figure is 2.57 µM; as for `CCSc1nnc2c(n1)O[C@@H](c1ccccc1F)N(C(C)=O)c1ccccc1-2`, 0.398 µM; as for `CSc1nnc2c(n1)O[C@@H](c1ccc(Cl)cc1)N(C(C)=O)c1ccccc1-2`, 2.09 µM.
In turn, `CCSc1nnc2c(n1)O[C@@H](c1ccc(C)s1)N(C(C)=O)c1ccccc1-2` showed an EC50 of 1.2 µM.
In the case of `CCCC(=O)N1c2ccccc2-c2nnc(SC)nc2O[C@H]1c1cccc(C)n1` it was 1.95 µM; in that of `CCSc1nnc2c(n1)O[C@@H](/C=C/c1ccco1)N(C(C)=O)c1ccccc1-2`, 1.17 µM; in that of `CCCC(=O)N1c2ccccc2-c2nnc(SC)nc2O[C@H]1c1cccc(OC)c1`, 1.02 µM.
As for `CCSc1nnc2c(n1)O[C@@H](c1ccc(Cl)cc1)N(C(C)=O)c1ccccc1-2`, the figure is 0.676 µM.

Usually EC50 stands for the concentration giving half of the maximal effect.
